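Step 1: Grow cells in 96-well plates. Step 2: Expose to compound for 48 hours at 5 concentrations. Step 3: Interpolate endpoints linearly; if unreached, use highest concentration. Abbreviation: GI50, concentration required for 50% inhibition of growth.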 The source made the active and inactive calls. Rule as the data show it: active = GI50 up to about 1.1 µM and inactive = higher.
How the values were obtained:
Test in all cases: NCI tumour cell line growth inhibition, 48 h
SK-OV-3 = test system: SK-OV-3
DU-145 = test system: DU-145
RPMI-8226 = test system: RPMI-8226
UO-31 = test system: UO-31
OVCAR-4 = test system: OVCAR-4
IGROV-1 = test system: IGROV-1
K562 = test system: K562
NCI-H522 = test system: NCI-H522
MCF7 = test system: MCF7
HCC 2998 = test system: HCC 2998
UACC-257 = test system: UACC-257
NCI/ADR-RES = test system: NCI/ADR-RES
RXF 393 = test system: RXF 393
TK-10 = test system: TK-10
HL-60 = test system: HL-60
HOP-92 = test system: HOP-92
HOP-62 = test system: HOP-62
SK-MEL-2 = test system: SK-MEL-2
COLO 205 = test system: COLO 205
MDA-MB-435 = test system: MDA-MB-435

Measured: GI50

CC(=O)C1=C(C)N(c2ccc(C)cc2)C2(O)C=CC(O)=C3C(=O)c4ccccc4C(=O)C312 (stereo not given)
inactive: SK-OV-3 > 100 µM | DU-145 15.4 µM | RPMI-8226 3.27 µM | UO-31 14.1 µM | OVCAR-4 12.6 µM | IGROV-1 7.38 µM | K562 31.3 µM | NCI-H522 13.7 µM | MCF7 7.71 µM | HCC 2998 16.8 µM | UACC-257 10.6 µM | NCI/ADR-RES 3.78 µM | RXF 393 9.04 µM | TK-10 23.4 µM | HL-60 7.76 µM | HOP-92 55.1 µM | HOP-62 26.9 µM | SK-MEL-2 7.36 µM | COLO 205 5.05 µM | MDA-MB-435 2.33 µM

— ChEMBL document CHEMBL1201862, “PubChem BioAssay data set” (2004)
